Tests used:
Type in all cases: physicochemical
[1] = stress stability testing, HPLC related substances and degradation products; parameters: HPLC related substance RRt 0.10 / HPLC related substance RRt 0.11 / HPLC related substance RRt 0.16 / HPLC related substance RRt 0.20 / HPLC related substance RRt 1.45 / HPLC related substance RRt 1.59 / HPLC related substance RRt 1.61 / HPLC related substance RRt 2.20 / HPLC related substance RRt 2.25: unit not given here
Experimental: Illustratively, it was tested under regular pharmaceutical tests such as stress condition test (Table 1) and was compared with chemical stability of the starting amorphous esomeprazole magnesium or esomeprazole Mg dihydrate form B (Table 2).

[2] = removal of residual solvents by drying (Comparative Example 2); conditions: drying at high temperatures
Text: Further removing of residual solvents was studied on amorphous esomeprazole magnesium by drying.

[3] = physical (polymorphic) stability under stress conditions; conditions: 14 days 40° C./75% relative humidity, 7 days 60° C.
Experimental: In addition, also physical stability of esomeprazole magnesium dihydrate form A obtained according to the present invention was tested.

[4] = 40° C./75 RH, open dish, 14 days, open vial

magnesium bis(5-methoxy-2-[(S)-[(4-methoxy-3,5-dimethyl-2-pyridinyl)methyl]sulfinyl]-1H-benzimidazole) [Amorphous esomeprazole magnesium]
HPLC - Related substances and degradation products: Sum [1, 4]: 0.43 | HPLC related substance OMP-benzimidazole (Ph. Eur. Imp. A) [1, 4]: 0.04 | HPLC related substance RRt 0.10 [1, 4]: 0.04 | HPLC related substance RRt 0.11 [1, 4]: 0.09 | HPLC related substance RRt 0.16 [1, 4]: 0.07 | HPLC related substance RRt 0.20 [1, 4]: 0.04 | HPLC related substance RRt 1.45 [1, 4]: 0.06 | HPLC related substance RRt 2.20 [1, 4]: 0.09 | HPLC - Related substances and degradation products: Sum ([1]; 60° C., 7 days, vial): 0.79 | HPLC related substance OMP-N-oxide (Ph. Eur. Imp. E) ([1]; 60° C., 7 days, vial): 0.03 | HPLC related substance OMP-N-sufone (Ph. Eur. Imp. D) ([1]; 60° C., 7 days, vial): 0.03 | HPLC related substance OMP-benzimidazole (Ph. Eur. Imp. A) ([1]; 60° C., 7 days, vial): 0.06 | HPLC related substance RRt 0.11 ([1]; 60° C., 7 days, vial): 0.12 | HPLC related substance RRt 0.16 ([1]; 60° C., 7 days, vial): 0.18 | HPLC related substance RRt 0.20 ([1]; 60° C., 7 days, vial): 0.06 | HPLC related substance RRt 1.45 ([1]; 60° C., 7 days, vial): 0.15 | HPLC related substance RRt 2.20 ([1]; 60° C., 7 days, vial): 0.07 | HPLC related substance RRt 2.25 ([1]; 60° C., 7 days, vial): 0.09 | HPLC - Related substances and degradation products: Sum ([1]; Initial analysis): 0.10 | HPLC related substance RRt 0.16 ([1]; Initial analysis): 0.06 | HPLC related substance RRt 1.45 ([1]; Initial analysis): 0.04 | chemical stability on drying to remove residual solvents [2]: accompanied by chemical decomposition

magnesium bis(5-methoxy-2-[(S)-[(4-methoxy-3,5-dimethyl-2-pyridinyl)methyl]sulfinyl]-1H-benzimidazole) [Esomeprazole magnesium dihydrate form B]
HPLC - Related substances and degradation products: Sum [1, 4]: 0.14 | HPLC related substance RRt 1.59 [1, 4]: 0.06 | HPLC related substance RRt 1.61 [1, 4]: 0.06 | HPLC - Related substances and degradation products: Sum ([1]; 60° C., 7 days, vial): 0.07 | HPLC related substance Omeprazole-N-methyl ([1]; 60° C., 7 days, vial): 0.07 | HPLC - Related substances and degradation products: Sum ([1]; Initial analysis): <0.05

COc1ccc2[n-]c([S@@+]([O-])Cc3ncc(C)c(OC)c3C)nc2c1.COc1ccc2[n-]c([S@@+]([O-])Cc3ncc(C)c(OC)c3C)nc2c1.O.O.[Mg+2]
chemical stability compared among the three forms of esomeprazole magnesium ([1]; stress stability testing, all three forms compared): chemically the most stable form

magnesium bis(5-methoxy-2-[(S)-[(4-methoxy-3,5-dimethyl-2-pyridinyl)methyl]sulfinyl]-1H-benzimidazole) [Esomeprazole magnesium dihydrate form A]
Chromatographic purity [1, 4]: 99.85 | HPLC - Related substances and degradation products: Sum [1, 4]: ≦0.05 | Chromatographic purity ([1]; 60° C., 7 days, vial): 99.82 | HPLC - Related substances and degradation products: Sum ([1]; 60° C., 7 days, vial): ≦0.05 | Chromatographic purity ([1]; Initial analysis): 99.85 | physical stability of the polymorphic form [3]: stable

From patent publication US8362259B2, “Process for the preparation of esomeprazole magnesium in a stable form” (Lek Pharmaceuticals, D.D., priority 2008, dated 2013)
